We go through 15 molecules from patent publication US7772425B2, “Vitamin D receptor modulators” (Eli Lilly and Company, priority 2002, dated 2010).

In data set [1] the test system is female DBF mice. Kind of data set: Mouse hypercalcemia assay. Conditions: orally via gavage for 6 days; serum ionized calcium 6 hours after last dosing. The format is in vivo. An excerpt:
4. The Mouse Hypercalcemia Assay
(4) Materials and Method for The Mouse Hypercalcemia Assay: […]

For data set [2], the system named is IL-10. Kind of data set: human IL-10 induction assay in PBMCs. The format is cell-based. To be noted: TPA/PHA treated human PBMCs, IL-10 immunoassay of supernatant. An excerpt: The evaluation of the novel compounds of the invention for psoriasis is done using the Keratinocyte Proliferation Assay in combination with other assays that measure inhibition of IL-2 production and stimulation of IL-10 production in peripheral blood mononuclear cells (PBMCs).
6. The IL-10 Induction Assay
This is an in vitro efficacy assay for psoriasis, abscess and adhesion. Psoriasis involves both keratinocytes and immune cells. IL-10 is a unique cytokine because it is anti-inflammatory and immunosuppressive. This assay tells us whether a VDRM is able to function as an agonist in PBMCs (primary blood mononuclear cells) or not. A lower EC50 value is desirable in this assay since a compound with a lower EC50 value will be a better agonist in PBMCs.
(6) Materials and Method for human IL-10 Induction Assay:
Isolation of peripheral blood mononuclear cells (PBMCs):
• A. Collect 50 ml of human blood and dilute with media, RPMI-1640. • B. Prepare sterile tubes with ficol. • C. Add diluted blood to tubes. • D. Centrifuge. • E. Discard the top layer and collect the cells from middle layer. • F. Divide all cells into four tubes and add media. • G. Centrifuge. • H. Aspirate off media and resuspend. • I. Collect all cells • J. Centrifuge. at 1200 rpm for 10 minutes. • K. Resuspend in RPMI-1640 with 2% FBS and count cells Stimulation of PBMC: • L. Prepare TPA in DMSO. • M. Dissolve PHA in water. • N. Plate TPA/PHA treated PBMCs in well plates. • O. Incubate. Treatment: • P. Prepare all compound dilutions in plain RPMI-1640 media. • Q. Add diluted compound. • R. Incubate. Sample Collection and assay: • S. Remove all the cells by centrifugation and assay the supernatant for IL-10 by immunoassay. • 1) T. Perform IL-10 assay using anti-human IL-10 antibody coated beads, as described by the manufacturer (Linco Research Inc., St. Charles, Mo.).

Data set [3] deals with rat osteocalcin promoter. Kind of data set: OCN (osteocalcin) promoter assay in RG-15 (ROS 17/2.8) cells. Format: cell-based. Conditions: 48 hr treatment, luciferase. As to the method:
3. The OCN (Osteocalcin) Promoter Assay
The OCN Promoter Assay is an indicator and marker for osteoporosis. […] Preferred assay results are less than 50 nM.
(3) Materials and Method for The OCN Promoter Assay:
The activation of osteocalcin by VDR ligands was evaluated in a rat osteoblast-like cell line RG-15 (ROS 17/2.8) stably expressing rat osteocalcin promoter fused with luciferase reporter gene. […] Confluent RG-15 cells maintained in DMEM/F-12 medium (3:1) containing 5% FBS, 300 μg/ml G418 and at 37° C. under 5% CO2/95% air atmosphere were trypsinized (0.25% trypsin) and plated into white opaque 96-well cell culture plates (25000 cells/well). After 24 hr, cells (in DMEM/F-12 medium+2% FBS) were treated with various concentrations of compounds, dissolved in DMSO. The final DMSO concentration remained at 0.01% (v/v). After 48 hr treatment, the medium was removed, cells were lysed with 50 μl of lysis buffer (From Luciferase reporter assay system, Roche Diagnostics, Indianapolis, Ind.) and assayed for luciferase activity using the Luciferase Reporter Gene Assay kit from Boehringer Mannheim as per manufacturer's specifications.

Data set [4] concerns KERtr cells (Human skin keratinocyte). Briefly: Keratinocyte proliferation assay. The format is cell-based. To be noted: BrdU incorporation, read-out: Kera. Prolif. IC50. On the procedure:
5. The Keratinocyte Proliferation Assay
This Assay is indicative for the treatment of psoriasis.
(5) The Keratinocyte Proliferation Assay:
KERtr cells (Human skin keratinocyte transformed with a retrovirus vector, obtained from ATCC) were plated in 96-well flat-bottomed plates (3000 cells/well) in 100 μl keratinocyte serum free medium supplemented with bovine pituitary extract in the absence of EGF (Life Technologies, Rockville, Md.) and incubated at 37° C. for two days. The cells were treated with various concentrations of VDR ligands (ten-fold serial dilution from 10,000 nM to 0.1 nM in triplicate), dissolved in 100 μl keratinocyte serum free medium supplemented with bovine pituitary extract in the absence of EGF and incubated at 37° C. for 72 hr. BrdU (5-bromo-2′-deoxyuridine) incorporation was analyzed as a measure of DNA replication (Cell proliferation ELISA kit, Roche Diagnostics, Indianapolis, Ind.) and absorbance was measured at 405 nm. Potency values (IC50) values were determined as the concentration (nM) of compound that elicited a half-maximal response.
Background: Incorporation of labelled thymidine or its analogues reports DNA synthesis.

The mark [5] stands for this setting: Homo sapiens, Keratinocyte, 72 h.

What is called IC50 is the concentration that inhibits the measured activity by half. As a reminder, the EC50 is the concentration needed to bring the measured effect to its halfway point.

Molecules are shown by their SMILES. Values joined by “and” are separate entries in the source; they are usually repeats but may differ in a detail not shown here. Identical values can stand only once. Like-named read-outs stand apart in the source and are kept apart here.

Take `CCC(CC)(c1ccc(OC(C)C(O)C(C)(C)C)c(C)c1)c1ccc(C(=O)N[C@H](C)C(=O)O)c(C)c1` (stereo partly shown) [Ex. 46, (D)-2-(4-{1-ethyl-1-[4-(2-hydroxy-1,3,3-trimethyl-butoxy)-3-methyl-phenyl]-propyl}-2-methyl-benzoylamino)-propionic acid]: the “Mouse Hypercal” value in data set [1] is 3000 µg/kg/day. In addition, the IC50 in data set [2] (Homo sapiens, PBMC) turned out to be 33 nM; in data set [4] (72 hr), 21 nM. Also, the EC50 in data set [3] was 2 nM and 3 nM.
Consider `CCC(CC)(c1ccc(CC2SC(=O)NC2=O)c(C)c1)c1ccc(OCC(O)C(C)(C)C)c(C)c1` (single isomer, unassigned) [Ex. 50, 5-(4-{1-ethyl-1-[4-(2-hydroxy-3,3-dimethyl-butoxy)-3-methyl-phenyl]-propyl}-2-methyl-benzyl)-thiazolidine-2,4-dione], for which, in data set [1], the “Mouse Hypercal” value was 300 µg/kg/day. Moreover, the IC50 in data set [2] stood at 4 nM; in data set [4] (72 hr) it was 3 nM. In data set [3], the half-maximal effective concentration (EC50) stood at 0.2 nM.
`CCC(CC)(c1ccc(OC(C)C(O)C(C)(C)C)c(C)c1)c1ccc(C(=O)N(C)CC(=O)O)c(C)c1` (single isomer, unassigned) [Ex. 52, [(4-{1-Ethyl-1-[4-(2-hydroxy-1,3,3-trimethyl-butoxy)-3-methyl-phenyl]-propyl}-2-methyl-benzoyl)-methyl-amino]-acetic acid]: the “Mouse Hypercal” value in data set [1] was above 3000 µg/kg/day. For the same molecule, the half-inhibitory concentration (IC50) in data set [2] (Homo sapiens, PBMC) is 154 nM; in data set [4] (72 hr) it was 52 nM. Also, the EC50 in data set [3] was found to be 4 nM.
Turning to `CCC(CC)(c1ccc(C(=O)O)cc1)c1ccc(OCC(O)C(C)(C)C)c(Cl)c1` (single isomer, unassigned) [Ex. 37, 3′-[3-chloro-4-(2-hydroxy-3,3-dimethylbutoxy)phenyl]-3′-[4-carboxyphenyl]pentane], in data set [1], the “Mouse Hypercal” value was 1000 µg/kg/day. Further, the IC50 was 229 nM in data set [2] (Homo sapiens, PBMC) and 55 nM in data set [4] (72 hr). Further, in data set [3], the EC50 was found to be 12 nM.
In the case of `CCC(CC)(c1ccc(-c2nnn[nH]2)cc1)c1ccc(OCC(O)C(C)(C)C)c(C)c1` (single isomer, unassigned) [Ex. 45, 1-(4-{1-Ethyl-1-[4-(1H-tetrazol-5-yl)-phenyl]-propyl}-2-methyl-phenoxy)-3,3-dimethyl-butan-2-ol], the “Mouse Hypercal” value in data set [1] is 300 µg/kg/day. For the same molecule, the IC50 was found to be 15 nM in data set [2] and 32 nM in data set [4] (72 hr). Also, in data set [3], the EC50 is 0.7 nM.
Take `CCC(CC)(c1ccc(OCC(O)C(C)(C)C)c(C)c1)c1ccc(C(=O)NCC(=O)O)c(C)c1` (single isomer, unassigned) [Ex. 25B, (4-{1-ethyl-1-[4-(2-hydroxy-3,3-dimethylbutoxy)-3-methylphenyl]-propyl}-2-methylbenzoylamino)acetic acid]: in data set [1], the “Mouse Hypercal” value was 1000 µg/kg/day. Further, the IC50 in data set [2] worked out at 158 nM; in data set [4] (72 hr) it was 26 nM. In data set [3], the EC50 was 2 nM and 3 nM.
`CCC(CC)(c1ccc(CCC(=O)O)c(C)c1)c1ccc(OCC(=O)C(C)(C)C)c(C)c1` [Ex 6, 3′-[4-(2-oxo-3,3-dimethylbutoxy)-3-methylphenyl]-3′-[4-(2-carboxylethyl)-3-methylphenyl]pentane]: the “Mouse Hypercal” value in data set [1] is 10 µg/kg/day. The IC50 in data set [2] (Homo sapiens, PBMC) came out at 55 nM; in data set [4] (setting [5]) it was 2 nM. Further, the half-maximal effective concentration (EC50) in data set [3] (Rattus norvegicus, 48 h) worked out at 0.3 nM.
Take `CCC(CC)(c1ccc(OCC(O)C(C)(C)C)c(C)c1)c1ccc(C(=O)Nc2nnn[nH]2)c(C)c1` (single isomer, unassigned) [Ex. 12a, 3′-[4-(2-hydroxy-3,3-dimethylbutoxy)-3-methylphenyl]-3′-[4-(tetrazol-5-ylaminocarbonyl)-3-methylphenyl]pentane]: the “Mouse Hypercal” value in data set [1] is 300 µg/kg/day. In addition, the IC50 in data set [2] (Homo sapiens, PBMC) is 52 nM; in data set [4] (setting [5]), 4 nM. In addition, the EC50 in data set [3] came to 1 nM.
Turning to `CCC(CC)(c1ccc(OCC(O)C(C)(C)C)c(C)c1)c1ccc(C(=O)N[C@H](C)C(=O)O)c(C)c1` (stereo partly drawn) [Ex. 34, D-2-(4-{1-ethyl-1-[4-(2-hydroxy-3,3-dimethyl-butoxy)-3-methyl-phenyl]-propyl}-2-methyl-benzoylamino)-propionic acid], in data set [1], the “Mouse Hypercal” value is below 300 µg/kg/day. In addition, the IC50 worked out at 45 nM in data set [2] (Homo sapiens, PBMC) and 25 nM in data set [4] (setting [5]).
On to `CCC(CC)(c1ccc(C(=O)O)cc1)c1ccc(OCC(O)C(C)(C)C)c(C)c1` (single isomer, unassigned) [Ex. 22, 4-{1-Ethyl-1-[4-(2-hydroxy-3,3-dimethylbutoxy)-3-methylphenyl]-propyl}benzoic acid], for which the “Mouse Hypercal” value in data set [1] was 1000 µg/kg/day. For the same molecule, the IC50 in data set [2] (Homo sapiens, PBMC) worked out at 39 nM; in data set [4] (72 hr), 4 nM.
As for `CCC(CC)(c1ccc(OCC(O)C(C)(C)C)c(C)c1)c1ccc(C(=O)N(C)CC(=O)O)c(C)c1` (single isomer, unassigned) [Ex. 19, [(4-{1-Ethyl-1-[4-(2-hydroxy-3,3-dimethyl-butoxy)-3-methyl-phenyl]-propyl}-2-methyl-benzoyl)-methyl-amino]-acetic acid], the “Mouse Hypercal” value in data set [1] is 2000 µg/kg/day. For the same molecule, the IC50 in data set [2] came to 142 nM; in data set [4] (72 hr), 82 nM. Moreover, in data set [3], the EC50 is 12 nM and 16 nM.
Turning to `CCC(CC)(c1ccc(CC2SC(=O)NC2=O)c(C)c1)c1ccc(OCC(O)C(C)(C)C)c(C)c1` (single isomer, unassigned) [Ex. 51, 5-(4-{1-ethyl-1-[4-(2-hydroxy-3,3-dimethyl-butoxy)-3-methyl-phenyl]-propyl}-2-methyl-benzyl)-thiazolidine-2,4-dione], the “Mouse Hypercal” value in data set [1] is 300 µg/kg/day. The values for the IC50 in data set [2] and in data set [4] (72 hr) were 19 nM and 26 nM, respectively. Moreover, the EC50 in data set [3] came out at 1.4 nM.
Regarding `CCC(CC)(c1ccc(OCC(O)C(C)(C)C)c(C)c1)c1ccc(C(=O)NC(C)(C)C(=O)O)c(C)c1` (single isomer, unassigned) [Ex. 20B, 2-(4-{1-Ethyl-1-[4-(2-hydroxy-3,3-dimethyl-butoxy)-3-methyl-phenyl]-propyl}-2-methyl-benzoylamino)-2-methyl-propionic acid], the “Mouse Hypercal” value in data set [1] is 300 µg/kg/day. Besides, the IC50 in data set [2] (Homo sapiens, PBMC) came to 4 nM; in data set [4] (setting [5]) it was 3 nM.
Consider `CCC(CC)(c1ccc(C(=O)O)cc1)c1ccc(OCC(O)C(C)(C)C)c(C)c1` (single isomer, unassigned) [Ex. 23, 4-{1-Ethyl-1-[4-(2-hydroxy-3,3-dimethylbutoxy)-3-methylphenyl]-propyl}benzoic acid], for which the “Mouse Hypercal” value in data set [1] was 3000 µg/kg/day. Besides, the IC50 was found to be 27 nM in data set [2] and 40 nM in data set [4] (72 hr).
On to `CCC(CC)(c1ccc(OC(C)C(O)C(C)(C)C)c(C)c1)c1ccc(C(=O)NCC(=O)O)c(C)c1` (single isomer, unassigned) [Ex. 32, 3′-[4-(2-hydroxy-1,3,3-trimethylbutoxy)-3-methylphenyl]-3′-[4-(carboxymethylaminocarbonyl)-3-methylphenyl]pentane], for which the “Mouse Hypercal” value in data set [1] is 1000 µg/kg/day. For the same molecule, the values for the IC50 in data set [2] and in data set [4] (72 hr) were 106 nM and 1000 nM, respectively.
